Measured values taken from patent US20260000781A1, “FC CONJUGATES INCLUDING AN INHIBITOR OF CD73 AND USES THEREOF” (Cidara Therapeutics, Inc., priority 2022, published 2026).
“And” between values parts separate entries of the source, which are not always exact repeats. Identical values can stand only once. Like-named read-outs stand apart in the source and are kept apart here.

Key:
CD73 on human PBMCs = molecular target: T1, CD73 on human PBMCs (Homo sapiens, UniProt P21589); test: CD73 enzyme inhibition assay with human PBMCs (PiColorLock); assay type: cell-based; details: AMP 100 μM
T1 construct: 72400 (T cells); host or cells: human PBMCs / human T cells
T1 sequence (P21589 27-549): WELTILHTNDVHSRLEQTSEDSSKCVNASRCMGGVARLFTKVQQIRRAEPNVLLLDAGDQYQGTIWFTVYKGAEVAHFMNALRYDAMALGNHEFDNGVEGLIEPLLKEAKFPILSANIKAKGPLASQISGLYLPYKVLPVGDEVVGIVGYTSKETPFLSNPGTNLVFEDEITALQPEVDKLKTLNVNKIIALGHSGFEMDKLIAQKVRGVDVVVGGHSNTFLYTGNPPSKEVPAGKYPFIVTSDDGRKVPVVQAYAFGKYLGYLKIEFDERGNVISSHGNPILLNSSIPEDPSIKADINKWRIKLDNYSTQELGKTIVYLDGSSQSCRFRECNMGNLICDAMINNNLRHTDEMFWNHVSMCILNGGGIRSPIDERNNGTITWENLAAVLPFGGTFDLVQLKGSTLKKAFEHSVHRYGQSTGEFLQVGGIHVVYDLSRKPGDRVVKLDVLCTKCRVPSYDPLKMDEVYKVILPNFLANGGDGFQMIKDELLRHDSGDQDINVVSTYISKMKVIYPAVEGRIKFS
Description: The cell-based CD73 enzyme inhibition assay was performed in a 96-well plate format using the PiColorLock phosphate assay kit in accordance with the manufacturer's instructions (Abcam cat no. 270004). 4T1 mouse cells are a model for stage IV human breast cancer (ATCC CRL-2539) and human peripheral blood mononuclear cells (PBMCs; StemCell Technologies cat no. 70025) from three different donors were assayed. 4T1 cells were washed three times with a phosphate-free CD73 buffer (Lawson et al., 2020), detached from tissue-culture flasks using a cell scraper, and seeded at 5×10^3 cells/well into 96-well tissue culture-treated plates. Human PBMCs were washed three times with phosphate-free CD73 buffer at 125×g for 10 min at room temperature and seeded at 1×10^5 cells/well into 96-well tissue culture-treated plates. Test articles were tested from 0.001 nM to 1,000 nM (4T1 cells) or 0.0001 nM to 100 nM (PBMCs) and incubated with cells for 30 min at 37° C., 5% CO2. AMP (100 μM final concentration) was added to cells and test articles, and the reaction incubated for 3 h and 24 h at 37° C., 5% CO2. The conversion of AMP to adenosine and phosphate in cell-free supernatant was quantified using the PiColorLock kit. Colorimetric detection reagent was added and the phosphate production was measured by reading the absorbance at 635 nm with the EnSpire multimode plate reader (PerkinElmer). Cells without test article (positive control) were included on each plate. Control wells without test article and cells (background) were subtracted from all wells. Percent CD73 inhibition versus inhibitor concentration was plotted using GraphPad Prism Version 8 and IC50's calculated using nonlinear regression analysis (Sigmoidal, 4 PL).
The cell-based CD73 enzyme inhibition assay was performed in a 96-well plate format using the Phosphate Assay Kit—PiColorLock™ in accordance with the manufacturer's instructions (cat no. 270004, Abcam). AMP is enzymatically converted by CD73 to adenosine and phosphate. Therefore, adenosine concentrations can be inferred from phosphate concentrations in 1:1 ratio. Both EMT6 mouse mammary carcinoma cells (ATCC CRL-2755) and human peripheral blood mononuclear cells (PBMC; Stemcell Technologies cat no. 70025, lot no. 2202401007) were assayed. The EMT6 cells were washed three times with a phosphate free CD73 buffer, detached from flasks using a cell scraper, and seeded at 3×10^3 cells/well in 100 μL into 96-well tissue culture-treated plates. Human PBMC cells were washed three times by suspending in phosphate free CD73 buffer and pelleting in a centrifuge at 125×g for 10 min at room temperature and seeded at 5×10^5 cells/well in 100 μL into 96-well tissue culture-treated plates. […] AMP was added at 100 μM and cells, test articles, and AMP were incubated together for 3 h and 24 h at 37° C., 5% CO2. The CD73 activity in the supernatant was quantified using the PiColorLock Phosphate assay kit. Colorimetric detection reagent was added and the free phosphate from the CD73 reaction was measured by reading the absorbance at 635 nm using the EnSpire multimode plate reader (PerkinElmer). Wells without test inhibitor (CD73 positive control) were included on each plate. Wells without test inhibitor and cells (background) were subtracted from all wells. The percent CD73 inhibition versus inhibitor concentration was plotted using GraphPad Prism Version 8 and IC50's calculated using nonlinear regression analysis (Sigmoidal, 4 PL).

human CD73/NT5E protein = molecular target: T2, human CD73/NT5E protein (Homo sapiens, UniProt P21589); test: Human CD73 binding by surface plasmon resonance; details: SPR, Biacore 8k; DFCs and mAbs on His-captured CD73, small molecules on NTA-captured CD73 (Table 14)
T2 construct: purchased Acro Biosystems CD3-H52H7
T2 sequence (P21589 27-549): T1 sequence (P21589 27-549)
Description: Kinetic binding of drug-Fc conjugates (DFCs) and comparator monoclonal antibodies (mAbs) to human CD73 by surface plasmon resonance (SPR) was performed by Acro Biosystems using the Biacore 8 k system (Cytiva). The anti-histidine antibody included in the His Capture Kit, type 2 (cat no. 29234602, Cytiva) was diluted to 50 μg/mL in immobilization buffer (10 mM sodium acetate, pH 4.5; cat no. 29234602, Cytiva) and immobilized at a flow rate of 10 μL/min for 420 s to 10,000 RU on a Series S Sensor Chip CM5 (cat no. 29149603, Cytiva). […] Sensorgrams were recorded by flowing 2-fold dilutions of analyte (DFC or mAb) in running buffer at concentrations ranging from 125 nM to 0.977 nM. Binding was measured at a flow rate of 30 μL/min, with a 90 s association phase and 120 s dissociation phase. […] Binding kinetics were analyzed using the data analysis software. […]
Binding of small molecule benchmark inhibitors to human CD73 by SPR was performed by Acro Biosystems using the Biacore 8 k system (Cytiva). […] Sensorgrams were recorded by flowing 2-fold dilutions of DFC analytes in running buffer at concentrations ranging from 15.625 nM to 0.977 nM. Binding was measured at a flow rate of 30 μL/min, with a 120 s association phase and 300 s dissociation phase. […] Binding kinetics were analyzed using the data analysis software. […]

CD73 [1] = molecular target: T3, CD73 (Homo sapiens, UniProt P21589); test: Cell-free CD73 enzyme inhibition assay (BPS Bioscience kit, colorimetric free phosphate); assay type: biochemical; details: AMP 100 μM, 25 min at 37° C.
T3 sequence (P21589 27-549): T1 sequence (P21589 27-549)
Description: The cell-free CD73 enzyme inhibition assay was performed in a 96-well plate format using the CD73 Inhibitor Screening Assay Kit in accordance with the manufacturer's instructions (BPS Bioscience cat no. 72055). […] Colorimetric detection reagent was then added (100 μL/well) and the free phosphate from the CD73 reaction was measured by reading the absorbance at 630 nm using the EnSpire multimode plate reader (PerkinElmer). Wells without test inhibitor (CD73 positive control) were included on each plate. Blank wells without test inhibitor and CD73 were subtracted from all wells. Percent CD73 inhibition (y-axis) versus log10 inhibitor concentration (x-axis) was plotted using GraphPad Prism Version 8 and IC50's calculated using nonlinear regression analysis (Sigmoidal, 4 PL).

CD73 [2] = molecular target: T3, CD73; test: Cell-free CD73 inhibition IC50 (nM)
From the text: Table printed on a drawing sheet, FIG. 24
Head of the field: Cell-free CD73 inhibition IC50 (nM)
Where the first naming reader finds the target: head: Cell-free CD73 inhibition IC50 (nM)

[3] = read-out: 3 h median IC50 [nM] (range), three unique PBMC donors, 3 h
[4] = three unique PBMC donors, 24 h, read-out: 24 h median IC50 [nM] (range)

IC50 (CD73 on human PBMCs; human PBMCs, 24 h (Table 18), read-out: 24 h IC50) [nM] | IC50 (CD73 on human PBMCs; read-out: 3 h IC50, human PBMCs, 3 h (Table 18)) [nM] | IC50 (CD73 on human PBMCs; [3]) [nM] | IC50 (CD73 on human PBMCs; [4]) [nM] | Kd (human CD73/NT5E protein) [nM] | IC50 (CD73 [1]) | IC50 (CD73 [2]) [nM] | Compound
0.28 | 0.011 | 0.07 | 0.15 | 0.523 | 3.8 nM and 3.79 nM | 2.25 | COC[C@](CO)(OC[C@H]1O[C@@H](n2ncc3c(NC4CCCC4)nc(Cl)nc32)[C@H](O)[C@@H]1O)P(=O)(O)O [OP-5244]
 |  | 1.45 | 2.36 | 3.34 | 12.9 nM | 16.1 | O=P(O)(O)COC[C@H]1O[C@@H](n2ncc3c(N4CC5(CCc6ccccc65)C4)nc(Cl)nc32)[C@H](O)[C@@H]1O [SHR170008]
